Source: patent US11040026B2, “Muscarinic M1 receptor positive allosteric modulators” (SUVEN LIFE SCIENCES LIMITED, priority 2016, dated 2021)

How the values were obtained:
muscarinic M1 receptor [1] = target: T1, muscarinic M1 receptor (Homo sapiens, UniProt P11229); details: literature report; cited from earlier work
T1 sequence (P11229 1-460): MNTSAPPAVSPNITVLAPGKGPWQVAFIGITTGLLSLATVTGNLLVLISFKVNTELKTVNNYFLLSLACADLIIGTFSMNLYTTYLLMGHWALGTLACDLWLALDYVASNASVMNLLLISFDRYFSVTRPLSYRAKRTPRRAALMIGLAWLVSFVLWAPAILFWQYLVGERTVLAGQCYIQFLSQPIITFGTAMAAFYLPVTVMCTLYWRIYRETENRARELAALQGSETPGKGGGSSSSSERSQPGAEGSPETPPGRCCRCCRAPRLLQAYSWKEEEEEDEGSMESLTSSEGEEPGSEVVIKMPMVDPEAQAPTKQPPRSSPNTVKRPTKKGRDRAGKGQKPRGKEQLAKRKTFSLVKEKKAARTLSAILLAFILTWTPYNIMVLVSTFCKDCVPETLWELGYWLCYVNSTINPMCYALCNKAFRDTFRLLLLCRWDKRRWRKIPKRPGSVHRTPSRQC

[2] = cited from earlier work
muscarinic M1 receptor [3] = target: T1, muscarinic M1 receptor; experiment: Allosteric potency EC50 for muscarinic M1 receptor (CHO pCRE-Luc reporter assay); format: cell-based; details: in presence of EC20 of acetylcholine; CHO cells, luciferase reporter, 4 hours
Method in brief: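 Stable CHO line with recombinant human M1 and cAMP-response-element luciferase reporter, serum-starved overnight. Test compounds at increasing concentrations added with an EC20 of acetylcholine, 4 h at 37 °C; luminescence read after lysis. EC50 = concentration giving 50% stimulation of luciferase activity in the presence of EC20 acetylcholine.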

Male Wistar rats [4] = experiment: Object recognition task model; format: in vivo; details: rat, 3 mg/kg, p.o.
Experimental: Object Recognition Task Model
(§1) Male Wistar rats (8-10 weeks old) were used as experimental animals. Four animals were housed in each cage. Animals were kept on 20% food deprivation from a day prior to experimentation. Water was provided ad libitum throughout the experiment. Animals were maintained on a 12 hours light/dark cycle in temperature and humidity controlled room. The experiment was carried out in an circular or square arena made up of acrylic. Rats were habituated to individual arenas for up to 1 hour in the absence of any objects on day 1.
One group of 12 rats received vehicle and another set of animals received test compounds, before familiar (T1) and choice (T2) trials. During the familiarization phase, (T1), the rats were placed individually in the arena for 3 minutes, in which two identical objects (a1 and a2) were positioned 10 cm from the wall. 24 hours after T1, trial for long-term memory test was performed. The same rats were placed in the same arena as they were placed in T1 trial. During the choice phase (T2) rats were allowed to explore the arena for 3 minutes in presence of a copy of familiar object (a3) and one novel object (b). During the T1 and T2 trial, explorations of each object (defined as sniffing, licking, chewing or having moving vibrissae whilst directing the nose towards the object at a distance of less than 1 cm) were recorded using stopwatch.
T1 is the total time spent exploring the familiar objects (a1+a2).
T2 is the total time spent exploring the familiar object and novel object (a3+b).
The object recognition test was performed as described in Behav. Brain Res., 1988, 31, 47-59.

[5] = Rodent brain penetration study; format: in vivo, Male Wistar rats; details: male, Wistar, brain and plasma, po; rat, 3 mg/kg, p.o., brain-plasma ratio; read-out: Single dose Rat Brain Penetration (Cb/Cp) at 3 mg/kg, p.o.
Experimental: Rodent Brain Penetration Study
Male Wistar rats (260±40 grams) were used as experimental animals. Three animals were housed in each cage. Animals were given water and food ad libitum throughout the experiment and maintained on a 12 hours light/dark cycle.
Brain penetration was determined in discrete manner in rats. One day prior to dosing day, male Wistar rats were acclimatized and randomly grouped according to their weight. At each time point (0.50, 1 and 2 hours) n=3 animals were used.
The test compounds were suitably preformulated and administered orally at (free base equivalent) 3 mg/kg. Blood samples were removed via cardiac puncture by using isoflurane anesthesia. The animals were sacrificed to collect brain tissue. Plasma was separated and brain samples were homogenized and stored frozen at −20° C. until analysis. The concentrations of the test compounds in plasma and brain were determined using LC-MS/MS method.
The test compounds were quantified in plasma and brain homogenate by qualified LC-MS/MS method using suitable extraction technique. The test compounds were quantified in the calibration range of 1-500 ng/mL in plasma and brain homogenate. Study samples were analyzed using calibration samples in the batch and quality control samples spread across the batch. Extent of brain-plasma ratio (Cb/Cp) was calculated

[6] = Rodent pharmacokinetic study; format: in vivo, Male Wistar rats; details: rat
Experimental: Rodent Pharmacokinetic Study
Male Wistar rats (260±50 grams) were used as experimental animals. Animals were housed individually in polypropylene cage. Two days prior to study, male Wistar rats were anesthetized with isoflurane for surgical placement of jugular vein catheter. Rats were randomly divided for oral (3 mg/kg) and intravenous (1 mg/kg) dosing (n=3/group) and fasted overnight before oral dosing (p.o.). However, rats allocated to intravenous dosing food and water was provided ad libitum.
At pre-determined point, blood was collected through jugular vein and replenished with an equivalent volume of normal saline. Collected blood was transferred into a labeled eppendorf tube containing 10 μL of heparin as an anticoagulant. Typically blood samples were collected at following time points: 0.08, 0.25, 0.5, 1, 2, 4, 6, 8, and 24 hours post dose. Blood was centrifuged at 4000 rpm for 10 minutes. Plasma was separated and stored frozen at −80° C. until analysis. The concentrations of the test compounds were quantified in plasma by qualified LC-MS/MS method using suitable extraction technique. The test compounds were quantified in the calibration range around 1-1000 ng/mL in plasma. Study samples were analyzed using calibration samples in the batch and quality control samples spread across the batch.
Pharmacokinetic parameters Cmax, AUCt, T1/2, Clearance and Bioavailability (F) were calculated by non-compartmental model using standard non-compartmental model by using Phoenix WinNonlin 6.0.4 version Software package.

Male Wistar rats [7] = experiment: Object recognition task model (combination study); format: in vivo; details: rat, combination (co-treatment) with donepezil; FIG. 1
Experimental: Object Recognition Task Model (Combination Study)
The cognition enhancing properties of compounds of this invention were estimated by using this model.
as §1, with “open field” for “circular or square arena”, “arenas (open field)” for “arenas”, “20 minutes” for “up to 1 hour”
One group of 12 rats received vehicle and another set of animals received compound of the formula (I) or Donepezil or compound of formula (I) and Donepezil, before the familiar (T1) and choice (T2) trials. During the familiarization phase, (T1), the rats were placed individually in the arena for 3 minutes, in which two identical objects (a1 and a2) were positioned 10 cm from the wall. 24 hours after T1, trial for long-term memory test was performed. […] During the T1 and T2 trial, explorations of each object (defined as sniffing, licking, chewing or having moving vibrissae whilst directing the nose towards the object at a distance of less than 1 cm) were recorded using stopwatch. […]

[8] = male, Wistar, plasma, intravenous (bolus), 1 mg/kg
[9] = male, Wistar, plasma, oral (gavage), 3 mg/kg

EC50 (muscarinic M1 receptor [3]) [nM] | Kp [5] | AUC(0-t) [6, 8] [ng·h/mL] | clearance [6, 8] [mL/min/kg] | half-life [6, 8] [h] | AUC(0-t) [6, 9] [ng·h/mL] | Cmax [6, 9] [ng/mL] | half-life [6, 9] [h] | F ([6]; oral (gavage) 3 mg/kg vs intravenous 1 mg/kg) [%] | SMILES | Selectivity for muscarinic M1 receptor over the other muscarinic receptor subtypes (muscarinic M1 receptor [1]) | Efficacy in preclinical models of cognition ([2]; Psychopharmacology, 2013, 225(1), 21-30) | Gastrointestinal side effects ([2]; at doses equal to or less than a fivefold margin from the minimum effective dose required to improve cognition) | Inference (Male Wistar rats [4]) | Exploration time mean ± S.E.M, Familiar object (Male Wistar rats [4]; choice trial 24 hours after T1) [s] | Exploration time mean ± S.E.M, Novel object (Male Wistar rats [4]; choice trial 24 hours after T1) [s] | Procognitive effect in object recognition task (Male Wistar rats [7])
 |  |  |  |  |  |  |  |  | N#CC1(c2ccccn2)CCN(Cc2cc(C(=O)O)c(=O)n3ccccc23)CC1 [PQCA, 1-{[4-cyano-4-(pyridine-2-yl)piperidin-1-yl]methyl}-4-oxo-4H-quinolizine-3-carboxylic acid] | highly selective | efficacious | no gastrointestinal side effects |  |  |  | 
1480 | 0.33 ± 0.02 | 796 ± 41 | 34 ± 3 | 1.3 ± 0.3 | 875 ± 215 | 373 ± 53 | 1.3 ± 0.2 | 59 ± 14 | Cn1ccc2c(Cc3ccnc(F)c3)cc(C(=O)N[C@H]3CCCC[C@@H]3O)nc21 [Example 1, N-[(1S,2S)-2-Hydroxycyclohexyl]-4-(2-fluoropyridin-4-ylmethyl)-1-methyl-1H-pyrrolo[2,3-b]pyridine-6-carboxamide] |  |  |  | Active | 12.67 ± 0.95 | 17.98 ± 1.77 | Procognitive effects were observed
